Measurements as given in patent US20150342901A1, “COMPOSITION COMPRISING NATURAL POLYPHENOL COMPOUNDS, AND COMPOSITION FOR ORAL ADMINISTRATION COMPRISING SAME” (SAMSUNG FINE CHEMICALS CO., LTD., priority 2012, published 2015).
Converted amounts (≈) assume the structure as drawn.

Assay: Solubility of poorly water-soluble natural polyphenolic compound (PSNPPC) in water
Type: physicochemical
Conditions: for solubility: PSNPPC alone, solubility = amount (mg) of solute that dissolves in 1 mL of water at 37° C.
Procedure: In the present specification. “solubility” refers to an amount (mg) of a solute (PSNPPC) that dissolves in 1 mL of water at 37° C., which is similar to a human body temperature.
Solubility of 3 types of poorly water-soluble natural polyphenolic compounds (PSNPPC) (a product of Naturex SA of France) were measured, and the results thereof are shown in Table 1.

**Q.** Which solubility does the source give for `COc1cc(/C=C/C(=O)CC(=O)/C=C/c2ccc(O)c(OC)c2)ccc1O` [Curcumin, curcumin] here?
**A.** 4 µg/mL (≈ 10.9 µM)

**Q.** Which solubility does the source give for `Oc1ccc(C=Cc2cc(O)cc(O)c2)cc1` [Resveratrol, resveratrol] here?
**A.** 87 µg/mL (≈ 381 µM)

**Q.** Which “Solubility (@37° C.)” value does the source give for silymarin here?
**A.** 0.008
